In US20160207930A1 (LEO PHARMA A/S, priority 2013, published 2016):

Experiments:
[1] = Hepatic intrinsic clearance following incubation in human liver microsomes; assay type: in vitro ADME; details: 0.5 μM test compound, NADPH, 0-30 min, scaled to g liver
How it was run: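 Compound incubated at 37° C with microsomes diluted to 0.55 mg/mL protein in 50 mM potassium phosphate pH 7.4 plus NADPH regenerating system; sampled 0–30 min and analysed by LC-MS/MS. Clint from ln(% parent remaining) slope, scaled to mL/min/g liver; Eh derived assuming 25.7 g/kg liver, 20.7 mL/min/kg blood flow.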

[2] = target: T1, NK1 Receptor (Homo sapiens, UniProt P25103); assay: NK1 receptor mediated intracellular [Ca2+] mobilization in U251 MG cells using FLIPR; assay type: cell-based; details: antagonism of Substance P (EC80), Fluo-4, read-out: NK1R mediated intracellular [Ca^2+] mobilization IC 50
T1 construct: Measurement of NK1 Receptor Mediated Intracellular [Ca^2+]; Mobilization in U251 MG Cells Using FLIPR; endogenous in cells; host or cells: U251 MG cells
How it was run: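 Fluo-4-loaded U251 MG cells preincubated with compound (0.5% DMSO final), checked 5 min for agonism, then 10 min at 37 °C before Substance P at EC80. Peak fluorescence change on FLIPR, normalized to 100 nM Aprepitant maximal response; IC50 by four-parameter logistic fit, reported as pIC50.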

T1 sequence (P25103 whole entry): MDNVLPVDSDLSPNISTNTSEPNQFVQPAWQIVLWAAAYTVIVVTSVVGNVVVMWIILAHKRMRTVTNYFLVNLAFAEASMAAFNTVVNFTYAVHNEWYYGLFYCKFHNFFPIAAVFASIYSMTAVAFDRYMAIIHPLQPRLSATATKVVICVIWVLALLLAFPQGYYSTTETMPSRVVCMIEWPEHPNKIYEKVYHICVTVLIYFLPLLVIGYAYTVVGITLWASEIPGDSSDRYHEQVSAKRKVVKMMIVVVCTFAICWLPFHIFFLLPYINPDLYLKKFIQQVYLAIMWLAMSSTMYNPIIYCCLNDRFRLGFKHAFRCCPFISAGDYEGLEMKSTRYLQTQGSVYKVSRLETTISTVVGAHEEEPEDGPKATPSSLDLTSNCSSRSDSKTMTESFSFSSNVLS

| Human in vitro Clint [1] [mL/min/g] | IC50 [2] [nM] | Compound |
| --- | --- | --- |
| 51 | 0.14 | Cc1c(Cl)cccc1[C@H]1[C@@H]2CCC(=O)N2CCN1C(=O)N(C)[C@H](C)c1cc(C(F)(F)F)cc(C(F)(F)F)c1 [Compound 66, (1S,8aS)—N—((R)-1-(3,5-bis(trifluoromethyl)phenyl)ethyl)-1-(3-chloro-2-methylphenyl)-N-methyl-6-oxohexahydropyrrolo[1,2-a]pyrazine-2(1H)-carboxamide] |
| 104 | 2.54 | Cc1cc(F)ccc1C1C2CC(CCO)(CCO)C(=O)N2CCN1C(=O)N(C)[C@H](C)c1cc(C(F)(F)F)cc(C(F)(F)F)c1 (single isomer, unassigned) [Compound 15] |
| >200 | 0.08 | Cc1ccc(C2C3CC(CCO)(CCO)C(=O)N3CCN2C(=O)N(C)[C@H](C)c2cc(C(F)(F)F)cc(C(F)(F)F)c2)c(C)c1 (single isomer, unassigned) [Compound 7] |
| >200 | 0.152 | Cc1sccc1[C@H]1[C@@H]2CCC(=O)N2CCN1C(=O)N(C)[C@H](C)c1cc(C(F)(F)F)cc(C(F)(F)F)c1 [Compound 57, (1S,8aS)—N—((R)-1-(3,5-bis(trifluoromethyl)phenyl)ethyl)-N-methyl-1-(2-methylthiophen-3-yl)-6-oxohexahydropyrrolo[1,2-a]pyrazine-2(1H)-carboxamide] |
| >200 | 0.054 | Cc1ccc([C@H]2[C@@H]3CC(CCO)(CCO)C(=O)N3CCN2C(=O)N(C)[C@H](C)c2cc(Cl)cc(C(F)(F)F)c2)c(C)c1 [Compound 34, (1S,8aS)—N—((R)-1-(3-chloro-5-(trifluoromethyl)phenyl)ethyl)-1-(2,4-dimethylphenyl)-7,7-bis(2-hydroxyethyl)-N-methyl-6-oxo-hexahydropyrrolo[1,2-a]pyrazine-2(1H)-carboxamide] |
| >200 | 0.297 | Cc1ccc([C@@H]2[C@H]3CCC(=O)N3CCN2C(=O)N(C)Cc2cc(C(F)(F)F)cc(C(F)(F)F)c2)c(C)c1 (racemic) [Compound 3, N-(3,5-bis(trifluoromethyl)benzyl)-1-(2,4-dimethylphenyl)-N-methyl-6-oxohexahydropyrrolo[1,2-a]pyrazine-2(1H)-carboxamide] |
| >200 | 0.063 | Cc1cc(F)ccc1C1C2CC(CCO)(CCO)C(=O)N2CCN1C(=O)N(C)[C@H](C)c1cc(Cl)cc(C(F)(F)F)c1 (single isomer, unassigned) [Compound 10] |
| >200 | 0.139 | Cc1cc(CN(C)C(=O)N2CCN3C(=O)C(CCO)(CCO)C[C@H]3[C@@H]2c2ccccc2C)nc(C(F)(F)F)c1 [Compound 33, (1S,8aS)-7,7-bis(2-hydroxyethyl)-N-methyl-N-((4-methyl-6-(trifluoromethyl)pyridin-2-yl)methyl)-6-oxo-1-o-tolylhexahydropyrrolo[1,2-a]pyrazine-2(1H)-carboxamide] |
| >200 | 28.6 | Cc1ncc([C@H]2[C@@H]3CCC(=O)N3CCN2C(=O)N(C)[C@H](C)c2cc(C(F)(F)F)cc(C(F)(F)F)c2)s1 [Compound 58, (1R,8aS)—N—((R)-1-(3,5-bis(trifluoromethyl)phenyl)ethyl)-N-methyl-1-(2-methylthiazol-5-yl)-6-oxohexahydropyrrolo[1,2-a]pyrazine-2(1H)-carboxamide] |
| >200 | 0.26 | CCc1cc([C@@H](C)N(C)C(=O)N2CCN3C(=O)CC[C@H]3[C@@H]2c2scc(C)c2C)cc(C(F)(F)F)c1 [Compound 76, (1R,8aS)-1-(3,4-dimethylthiophen-2-yl)-N—((R)-1-(3-ethyl-5-(trifluoromethyl)phenyl)ethyl)-N-methyl-6-oxohexahydropyrrolo[1,2-a]pyrazine-2(1H)-carboxamide] |

Further lines, the molecule ahead of its results:

| Compound | Human in vitro Clint [1] [mL/min/g] | IC50 [2] [nM] |
| --- | --- | --- |
| CCc1cc([C@@H](C)N(C)C(=O)N2CCN3C(=O)CC[C@H]3[C@@H]2c2ccccc2C)nc(C(F)(F)F)c1 [Compound 32, (1S,8aS)—N—((R)-1-(4-ethyl-6-(trifluoromethyl)pyridin-2-yl)ethyl)-N-methyl-6-oxo-1-o-tolylhexahydropyrrolo[1,2-a]pyrazine-2(1H)-carboxamide] | >200 | 0.66 |
| C[C@H](c1cc(C(F)(F)F)cc(C(F)(F)F)c1)N(C)C(=O)N1CCN2C(=O)CC[C@H]2[C@@H]1c1cncs1 [Compound 59, (1R,8aS)—N—((R)-1-(3,5-bis(trifluoromethyl)phenyl)ethyl)-N-methyl-6-oxo-1-(thiazol-5-yl)-hexahydropyrrolo[1,2-a]pyrazine-2(1H)-carboxamide] | >200 | 29.4 |
| Cc1ccc([C@H]2[C@@H]3CC(CCO)(CCO)C(=O)N3CCN2C(=O)N(C)[C@H](C)c2cc(C(C)C)cc(C(F)(F)F)c2)c(C)c1 [Compound 35, (1S,8aS)-1-(2,4-dimethylphenyl)-7,7-bis(2-hydroxyethyl)-N—((R)-1-(3-isopropyl-5-(trifluoromethyl)phenyl)ethyl)-N-methyl-6-oxohexahydropyrrolo[1,2-a]pyrazine-2(1H)-carboxamide] | >200 | 0.141 |
| C[C@H](c1cc(C(F)(F)F)cc(C(F)(F)F)c1)N(C)C(=O)N1CCN2C(=O)CC[C@H]2[C@@H]1c1ccc(F)cc1 [Compound 85, (1S,8aS)—N—((R)-1-(3,5-bis(trifluoromethyl)phenyl)ethyl)-1-(4-fluorophenyl)-N-methyl-6-oxohexahydropyrrolo[1,2-a]pyrazine-2(1H)-carboxamide] | >200 | 100 |
| Cc1cccc([C@H]2[C@@H]3CCC(=O)N3CCN2C(=O)N(C)[C@H](C)c2cc(C(F)(F)F)cc(C(F)(F)F)c2)c1C [Compound 40, (1S,8aS)—N—((R)-1-(3,5-bis(trifluoromethyl)phenyl)ethyl)-1-(2,3-dimethylphenyl)-N-methyl-6-oxo-hexahydropyrrolo[1,2-a]pyrazine-2(1H)-carboxamide] | >200 | 0.197 |
| Cc1cscc1[C@H]1[C@@H]2CCC(=O)N2CCN1C(=O)N(C)[C@H](C)c1cc(C(F)(F)F)cc(C(F)(F)F)c1 [Compound 48] | >200 | 0.249 |
| Cc1cc([C@@H](C)N(C)C(=O)N2CCN3C(=O)C(CCO)(CCO)C[C@H]3[C@@H]2c2c[nH]nc2C)cc(C(F)(F)F)c1 [Compound 63, (1S,8aS)-7,7-bis(2-hydroxyethyl)-N-methyl-1-(3-methyl-1H-pyrazol-4-yl)-N—((R)-1-(3-methyl-5-(trifluoromethyl)phenyl)ethyl)-6-oxo-hexahydropyrrolo[1,2-a]pyrazine-2(1H)-carboxamide] | 51 | 9.29 |
| Cc1ccc([C@@H]2[C@H]3CC(CCO)(CCO)C(=O)N3CCN2C(=O)N(C)Cc2cc(C(F)(F)F)cc(C(F)(F)F)c2)c(C)c1 (racemic) [Compound 9, N-(3,5-bis(trifluoromethyl)benzyl)-1-(2,4-dimethylphenyl)-7,7-bis(2-hydroxyethyl)-N-methyl-6-oxohexahydropyrrolo[1,2-a]pyrazine-2(1H)-carboxamide] | >200 | 0.18 |
| Cc1cc([C@@H](C)N(C)C(=O)N2CCN3C(=O)CC[C@H]3[C@@H]2c2sccc2C)cc(C(F)(F)F)c1 [Compound 52, (1R,8aS)—N-methyl-N—((R)-1-(3-methyl-5-(trifluoromethyl)phenyl)ethyl)-1-(3-methylthiophen-2-yl)-6-oxohexahydropyrrolo[1,2-a]pyrazine-2(1H)-carboxamide] | >200 | 0.353 |
| Cc1cc([C@@H](C)N(C)C(=O)N2CCN3C(=O)C(CCO)(CCO)CC3C2c2ccc(F)cc2C)cc(C(F)(F)F)c1 (single isomer, unassigned) [Compound 12] | >200 | 0.622 |
| Cc1cc(F)ccc1[C@H]1[C@@H]2CC(CCO)(CCO)C(=O)N2CCN1C(=O)N(C)[C@H](C)c1cc(C(C)C)cc(C(F)(F)F)c1 [Compound 25, (1S,8aS)-1-(4-fluoro-2-methylphenyl)-7,7-bis(2-hydroxyethyl)-N—((R)-1-(3-isopropyl-5-(trifluoromethyl)phenyl)ethyl)-N-methyl-6-oxohexahydropyrrolo[1,2-a]pyrazine-2(1H)-carboxamide] | 128 | 0.08 |
| CCc1cc([C@@H](C)N(C)C(=O)N2CCN3C(=O)CC[C@H]3[C@@H]2c2cccc3c2CCC3)cc(C(F)(F)F)c1 [Compound 80, (1S,8aS)-1-(2,3-dihydro-1H-inden-4-yl)-N—((R)-1-(3-ethyl-5-(trifluoromethyl)phenyl)ethyl)-N-methyl-6-oxohexahydropyrrolo[1,2-a]pyrazine-2(1H)-carboxamide] | >200 | 0.79 |
| COc1ccccc1[C@H]1[C@@H]2CC(CCO)(CCO)C(=O)N2CCN1C(=O)N(C)[C@H](C)c1cc(C(F)(F)F)cc(C(F)(F)F)c1 [Compound 36, (1S,8aS)—N—((R)-1-(3,5-bis(trifluoromethyl)phenyl)ethyl)-7,7-bis(2-hydroxyethyl)-1-(2-methoxyphenyl)-N-methyl-6-oxo-hexahydropyrrolo[1,2-a]pyrazine-2(1H)-carboxamide] | 147 | 0.811 |
